Assay results published in US20100028293A1, “Agents for control of codling moth in fruit orchards” (Efal Chemical Industries Ltd., priority 2004, published 2010).
Each block holds one molecule with its values, some of them ahead of it.

Tests used:
codling moth adults = assay: Cage bioassay, paired traps with synthetic compounds versus water/ethanol control trap; assay type: in vivo, Cydia pomonella; conditions: for attractiveness to the adult insects (insects caught in trap): individual compounds at the concentrations detected in the leaf extracts, paired with control trap of water and ethanol, 60 adults, overnight, decreasing order: methyl salicylate and theaspirane mixture, linalool, benzyl alcohol
Experimental: (i) Insects—Eggs of the CM Cydia pomonella L. were hatched at room temperature in a petri dish. The larvae were fed an artificial diet (Manduca Premix-Heliothis Premix, Stonefly Inc., Brvan, Tex.), kept at 25±0.5° C., 60±1% relative humidity and a photoperiod of 16:8 h (L:D) until the fifth instar larvae, which were transferred to corrugated paper strips (2 cm^2). Upon emergence, adult insects of mixed sex and age (within 2 days) were used for the cage bioassays.
(v) Cage bioassays—Trapping tests were conducted in screen cages (96×68×45 cm) in the laboratory at room temperature (23° C.±3° C.) based on the method of Zhu et al. (2003). Sixty codling moth adults of mixed sex and ages (2 days after pupal emergence) were released into a cage containing the traps with different treatments. […] A Whatman paper wick (10 cm long) was used as a dispenser. To examine the effects of adding recombinant BGL1 to the leaf extract, four traps were constructed and put into the same cage. The first trap contained 10 ml of leaf extract with the addition of recombinant BGL1. The second trap contained the same amount of leaf extract with the addition of glucoimidazole. The third trap contained only leaf extract and the fourth trap contained water. The insects caught in the traps, or around the trap, were counted 12 h after their release. The insects around the trap were defined as follows: the space of the screen cage was divided equally into four parts. Each trap was put in the center of each part. The number of the insects present in each specific space, not including the ones inside the trap, was obtained in the experiments. To test the attractiveness of the synthetic compounds, traps were made with the individual chemicals that were first dissolved in ethanol at the concentrations determined by the SPME-GC-MS analyses in leaf extracts treated with BGL1. The final concentration of ethanol was 0.01%. Each trap was kept in the cage with only a control water trap including 0.01% ethanol. The experiments were conducted overnight (from 9 pm to 9 am) to cover their active time before the twilight in the early morning. […] This experiment was replicated 3 times. The traps were randomly arranged in the replications to avoid possible position effect of the traps. The studies on sex ratios of trapped insects were skipped because of complicated involvement of insect pheromones.

[1] = test system: endogenous β-glucosidase in apple leaf extracts; assay: Quantitative β-glucosidase activity assay with pNPG as substrate; assay type: biochemical, Malus domestica; conditions: 2 μM glucoimidazole added to leaf homogenate
Experimental: (ii) Apple leaf extract treatments—Apple (cv. Anna) spurs with both leaves and fruit were excised from a commercial orchard in the suburb of Rehovot, Israel, in June 2004. The leaves were excised from the spurs, rinsed with double distilled water (DDW) and then dried with filter paper. Dried leaves were homogenized in liquid nitrogen. Three times the weight of ice-cold extraction buffer containing 10 mM EDTA and 4 mM DTT in 50 mM citrate buffer, pH 4.3, was added to the leaf homogenate (4-5 g per treatment). The mixture was then rotated for 1 h at 4° C. and centrifuged at 16,000 g for 5 min. The supernatant (10 ml per treatment) was collected. In one treatment, 1 unit of recombinant A. niger BGL1 produced in P. pastoris (Dan et al., 2000) was added and the solution was kept at 37° C. for 4 h. In another treatment, 2 μM glucoimidazole (a β-glucosidase inhibitor) was added to the leaf homogenate immediately after the addition of the extraction buffer in order to block any endogenous β-glucosidase activity. Quantitative β-glucosidase activity was assayed using p-nitrophenyl-β-D-glucopyranoside (pNPG) as the substrate according to Shoseyov et al (1990).

Compound: OCc1ccccc1 [benzyl alcohol]
attractiveness to the adult insects (insects caught in trap) (codling moth adults): more attractive than water

Compound: CCCCCCCCO [1-octanol, reference compound]
effect on the behavior of codling moth adults (codling moth adults; 1-octanol alone or added to other compounds): does not have a significant effect
insects caught in trap (codling moth adults; trap with 70 ng m^−1 1-octanol): did not catch any insects

Compound: C=CC(C)(O)CCC=C(C)C (stereo not shown) [linalool]
attractiveness to the adult insects (insects caught in trap) (codling moth adults): more attractive than water

Compound: COC(=O)c1ccccc1O [methyl salicylate]
attractiveness to the adult insects (insects caught in trap) (codling moth adults): more attractive than water

β-glucosidase activity in the leaf extract after treatment [1]: undetectable levels
Compound: OC[C@@H]1[C@@H](O)[C@H](O)[C@@H](O)c2nccn21 [glucoimidazole]

Compound: CC(C)=CCC/C(C)=C/CO [geraniol]
repellent effect on codling moth adults (codling moth adults; 39.4 ng ml^−1): exhibited a repellent effect
